Source: PMC12396409, “Screening and hit evaluation of a microbial metabolite library against the pathogenic Plasmodium falciparum and Toxoplasma gondii parasites” (International Journal for Parasitology: Drugs and Drug …, 2025)
Like-named read-outs stand apart in the source and are kept apart here.

What was measured:
[1] = system: P. falciparum 3D7 parasites; experiment: P. falciparum growth inhibition assay, 1-cycle (72 h treatment), SYBR DNA staining (library screen at 2 μg/mL and dose-response); format: cell-based, Plasmodium falciparum; details: for activity at 2 µg/mL: Plasmodium falciparum
[2] = system: T. gondii RH strain (RH-Tub-eYFP) tachyzoites; experiment: microbe, parasite or virus in culture; format: cell-based, Toxoplasma gondii; details: 72 h; for percent parasite growth at 2 µg/mL: Toxoplasma gondii
[3] = system: P. falciparum 3D7 parasites; experiment: P. falciparum growth inhibition assay, 2-cycle (120 h treatment), delayed-death screen and dose-response; format: cell-based, Plasmodium falciparum; details: for activity at 2 µg/mL: Plasmodium falciparum
[4] = P. falciparum, 72 h, screen at 2 μg/mL, replicate 1
[5] = P. falciparum, 72 h, screen at 2 μg/mL, replicate 2
[6] = T. gondii, screen at 2 μg/mL, replicate 1
[7] = T. gondii, screen at 2 μg/mL, replicate 2
[8] = P. falciparum, 120 h, screen at 2 μg/mL, replicate 1
[9] = P. falciparum, 120 h, screen at 2 μg/mL, replicate 2
[10] = library screen at 2 μg/mL, 72 h, % growth, replicate 1
[11] = library screen at 2 μg/mL, 72 h, % growth, replicate 2
[12] = library screen at 2 μg/mL, % growth, replicate 1
[13] = library screen at 2 μg/mL, % growth, replicate 2
[14] = library screen at 2 μg/mL, 120 h, % growth, replicate 1
[15] = library screen at 2 μg/mL, 120 h, % growth, replicate 2
[16] = T. gondii, parasite screen 2 μg/mL, % growth, replicate 1, read-out: Tg_72h_%Growth_Rep1
[17] = T. gondii, parasite screen 2 μg/mL, % growth, replicate 2, read-out: Tg_72h_%Growth_Rep2
[18] = P. falciparum 3D7, 72 h, parasite screen at 2 μg/mL, % growth, replicate 1
[19] = P. falciparum 3D7, 72 h, parasite screen at 2 μg/mL, % growth, replicate 2
[20] = T. gondii, parasite screen at 2 μg/mL, % growth, replicate 1
[21] = T. gondii, parasite screen at 2 μg/mL, % growth, replicate 2
[22] = P. falciparum 3D7, 120 h, parasite screen at 2 μg/mL, % growth, replicate 1
[23] = P. falciparum 3D7, 120 h, parasite screen at 2 μg/mL, % growth, replicate 2

SMILES: CC[C@H]1OC(=O)C[C@@H](O)[C@H](C)[C@@H](O[C@@H]2O[C@H](C)[C@@H](O)[C@H](N(C)C)[C@H]2O)[C@@H](CCN2C[C@H](C)C[C@H](C)C2)C[C@@H](C)C(=O)/C=C/C(C)=C/[C@@H]1CO[C@@H]1O[C@H](C)[C@@H](O)[C@@H](OC)[C@H]1OC.O=P(O)(O)O [Tilmicosin phosphate, reference compound]
- 1) Growth (%) at 72 h ([1]; P. falciparum, 2 μg/mL, 72 h): 22.07%
- Mean ([1]; P. falciparum, 72 h, 2 μg/mL, mean of both replicates, growth (% of control)): 22.07
- Pf_72h_%Growth_Rep1 [1, 4]: 4.49%
- Pf_72h_%Growth_Rep2 [1, 5]: 39.64%
- Tg_72h_%Growth_Rep1 [2, 6]: 41.21%
- Tg_72h_%Growth_Rep2 [2, 7]: 38.33%
- 2) Growth (%) at 120 h ([3]; P. falciparum, 2 μg/mL, 120 h): 7.83%
- Pf_120h_%Growth_Rep1 [3, 8]: 10.28%
- Pf_120h_%Growth_Rep2 [3, 9]: 5.38%
- 3) Fold change (72 h/120 h) ([3]; P. falciparum, growth at 72 h / growth at 120 h, 2 μg/mL): 2.8

SMILES: CC[C@H](C)[C@H]1O[C@]2(C=C[C@@H]1C)C[C@@H]1C[C@@H](C/C=C(\C)[C@@H](O[C@H]3C[C@H](OC)[C@@H](O[C@H]4C[C@H](OC)[C@H](NC(C)=O)[C@H](C)O4)[C@H](C)O3)[C@@H](C)/C=C/C=C3\CO[C@@H]4[C@H](O)C(C)=C[C@@H](C(=O)O1)[C@]34O)O2 [Eprinomectin B1a, reference compound]
- 1) Growth (%) at 72 h ([1]; P. falciparum, 2 μg/mL, 72 h): 42.60%
- Pf_72h_%Growth_Rep1 [1, 10]: 53.90%
- Pf_72h_%Growth_Rep2 [1, 11]: 31.29%
- Tg_72h_%Growth_Rep1 [2, 12]: 139.55%
- Tg_72h_%Growth_Rep2 [2, 13]: 101.56%
- 3) Fold change (72 h/120 h) [3]: 2.2
- 2) Growth (%) at 120 h ([3]; P. falciparum, 2 μg/mL, 120 h): 19.45%
- Pf_120h_%Growth_Rep1 [3, 14]: 26.03%
- Pf_120h_%Growth_Rep2 [3, 15]: 12.86%

SMILES: CCCCCCC(C)C/C(C)=C\C(/C=C(C)/C=C/C(O)C(C)(C)c1cc(O)c([C@@H]2O[C@H](CO)C[C@H](O)[C@H]2O)c(=O)o1)CO (some centres unmarked) [Fusapyrone]
- Pf_72h_%Growth_Rep1 [1, 10]: 90.44%
- Pf_72h_%Growth_Rep2 [1, 11]: 35.77%
- Tg_72h_%Growth_Rep1 [2, 12]: 113.82%
- Tg_72h_%Growth_Rep2 [2, 13]: 93.81%
- Pf_120h_%Growth_Rep1 [3, 14]: 92.76%
- Pf_120h_%Growth_Rep2 [3, 15]: 105.39%

SMILES: CO[C@H]1C[C@@H]2CC[C@@H](C)[C@@](O)(O2)C(=O)C(=O)N2CCCC[C@H]2C(=O)O[C@H]([C@H](C)C[C@@H]2CC[C@@H](OP(C)(C)=O)[C@H](OC)C2)CC(=O)[C@H](C)/C=C(\C)[C@@H](O)[C@@H](OC)C(=O)[C@H](C)C[C@H](C)/C=C/C=C/C=C/1C [Ridaforolimus]
- activity at 2 µg/mL ([1]; 3D7, 72 h, P. falciparum, 72 h, parasite screen 2 μg/mL, % growth, replicate 1, read-out: Pf_72h_%Growth_Rep1): 68.5%
- activity at 2 µg/mL ([1]; 3D7, 72 h, P. falciparum, 72 h, parasite screen 2 μg/mL, % growth, replicate 2, read-out: Pf_72h_%Growth_Rep2): 69.8%
- percent parasite growth at 2 µg/mL [2, 16]: 128%
- percent parasite growth at 2 µg/mL [2, 17]: 84.7%
- activity at 2 µg/mL ([3]; 3D7, 120 h, P. falciparum, 120 h, parasite screen 2 μg/mL, % growth, replicate 1, read-out: Pf_120h_%Growth_Rep1): 75.1%
- activity at 2 µg/mL ([3]; 3D7, 120 h, P. falciparum, 120 h, parasite screen 2 μg/mL, % growth, replicate 2, read-out: Pf_120h_%Growth_Rep2): 55.3%

SMILES: CO[C@H]1C[C@H](O[C@@H]2/C(C)=C/C[C@@H]3C[C@@H](C[C@]4(C=C[C@H](C)[C@@H](C5CCCCC5)O4)O3)OC(=O)[C@@H]3C=C(C)[C@@H](O)[C@H]4OC/C(=C\C=C\[C@@H]2C)[C@]43O)O[C@@H](C)[C@@H]1O [Doramectin monosaccharide]
- Pf_72h_%Growth_Rep1 [1, 10]: 77.72%
- Pf_72h_%Growth_Rep2 [1, 11]: 82.97%
- Tg_72h_%Growth_Rep1 [2, 12]: 100.60%
- Tg_72h_%Growth_Rep2 [2, 13]: 107.16%
- Pf_120h_%Growth_Rep1 [3, 14]: 94.58%
- Pf_120h_%Growth_Rep2 [3, 15]: 82.00%

SMILES: C[C@@H]1CCCCCCCCC[C@H](OC(=O)CCC(=O)O)C(=O)/C=C/C(=O)O1 [A 26771B]
- Pf_72h_%Growth_Rep1 [1, 10]: 82.59%
- Pf_72h_%Growth_Rep2 [1, 11]: 86.99%
- Tg_72h_%Growth_Rep1 [2, 12]: 90.42%
- Tg_72h_%Growth_Rep2 [2, 13]: 102.55%
- Pf_120h_%Growth_Rep1 [3, 14]: 86.96%
- Pf_120h_%Growth_Rep2 [3, 15]: 89.23%

SMILES: CN(C)[C@@H]1C(=O)C(C(=O)NCN2CCN(CCO)CC2)=C(O)[C@@]2(O)C(=O)C3=C(O)c4c(O)cccc4[C@@](C)(O)[C@H]3C[C@@H]12 [BIA-P1473]
- Pf_72h_%Growth_Rep1 [1, 18]: 83.77%
- Pf_72h_%Growth_Rep2 [1, 19]: 98.47%
- Tg_72h_%Growth_Rep1 [2, 20]: 118.64%
- Tg_72h_%Growth_Rep2 [2, 21]: 93.61%
- Pf_120h_%Growth_Rep1 [3, 22]: 88.47%
- Pf_120h_%Growth_Rep2 [3, 23]: 132.29%

SMILES: CC/C=C\[C@H](O)[C@H](O)C1=C(C)C(=O)[C@]2(O1)C(=O)N[C@@](OC)(C(=O)c1ccccc1)[C@@H]2O [Pseurotin A]
- activity at 2 µg/mL ([1]; 3D7, P. falciparum, 72 h, parasite screen 2 μg/mL, % growth, replicate 1, read-out: Pf_72h_%Growth_Rep1): 85.8%
- activity at 2 µg/mL ([1]; 3D7, P. falciparum, 72 h, parasite screen 2 μg/mL, % growth, replicate 2, read-out: Pf_72h_%Growth_Rep2): 95.5%
- percent parasite growth at 2 µg/mL [2, 16]: 122%
- percent parasite growth at 2 µg/mL [2, 17]: 81%
- activity at 2 µg/mL ([3]; 3D7, P. falciparum, 120 h, parasite screen 2 μg/mL, % growth, replicate 1, read-out: Pf_120h_%Growth_Rep1): 79.7%
- activity at 2 µg/mL ([3]; 3D7, P. falciparum, 120 h, parasite screen 2 μg/mL, % growth, replicate 2, read-out: Pf_120h_%Growth_Rep2): 139%

SMILES: CCC(=O)[C@@H](C)[C@@H](O)[C@H](C)C[C@@H](C)[C@H]1OC(=O)C[C@@]2(O)CC=C(C)[C@H](O2)/C(C)=C/CCC[C@@H](O[C@H]2C[C@@H](OC(N)=O)[C@H](O)[C@@H](C)O2)/C=C/[C@H](C)C[C@H]1C [Venturicidin A]
- Pf_72h_%Growth_Rep1 [1, 4]: 8.64%
- Pf_72h_%Growth_Rep2 [1, 5]: 1.38%
- Tg_72h_%Growth_Rep1 [2, 6]: -1.24%
- Tg_72h_%Growth_Rep2 [2, 7]: 0.71%
- Pf_120h_%Growth_Rep1 [3, 8]: 19.97%
- Pf_120h_%Growth_Rep2 [3, 9]: -12.87%

SMILES: Cc1cc(O)cc(O)c1C(=O)O [BIA-O1657]
- Pf_72h_%Growth_Rep1 [1, 18]: 83.41%
- Pf_72h_%Growth_Rep2 [1, 19]: 79.75%
- Tg_72h_%Growth_Rep1 [2, 20]: 114.94%
- Tg_72h_%Growth_Rep2 [2, 21]: 95.01%
- Pf_120h_%Growth_Rep1 [3, 22]: 95.39%
- Pf_120h_%Growth_Rep2 [3, 23]: 131.31%

SMILES: C[C@@H]1C[C@@H]([C@H](O)CC2CC(=O)NC(=O)C2)C(=O)[C@@H](C)C1 [cycloheximide, reference compound]
- activity in the screen against P. falciparum ([1]; 2 μg/mL, 72 h, active = ≥80 % growth inhibition): active
- activity at 2 µg/mL ([1]; 3D7, P. falciparum, 72 h, screen at 2 μg/mL, replicate 1, read-out: Pf_72h_%Growth_Rep1): 1.07%
- activity at 2 µg/mL ([1]; 3D7, P. falciparum, 72 h, screen at 2 μg/mL, replicate 2, read-out: Pf_72h_%Growth_Rep2): 4.34%
- percent parasite growth at 2 µg/mL ([2]; T. gondii, screen at 2 μg/mL, replicate 1, read-out: Tg_72h_%Growth_Rep1): 7.84%
- percent parasite growth at 2 µg/mL ([2]; T. gondii, screen at 2 μg/mL, replicate 2, read-out: Tg_72h_%Growth_Rep2): 1.95%
- activity at 2 µg/mL ([3]; 3D7, P. falciparum, 120 h, screen at 2 μg/mL, replicate 1, read-out: Pf_120h_%Growth_Rep1): 1.73%
- activity at 2 µg/mL ([3]; 3D7, P. falciparum, 120 h, screen at 2 μg/mL, replicate 2, read-out: Pf_120h_%Growth_Rep2): 0.69%

SMILES: C/C(=C\c1csc(C)n1)[C@@H]1C[C@@H]2O[C@]2(C)CCC[C@H](C)[C@H](O)[C@@H](C)C(=O)C(C)(C)[C@@H](O)CC(=O)O1 [Epothilone B]
- activity at 2 µg/mL ([1]; 3D7, library screen at 2 μg/mL, 72 h, % growth, replicate 1, read-out: Pf_72h_%Growth_Rep1): 31.4%
- activity at 2 µg/mL ([1]; 3D7, library screen at 2 μg/mL, 72 h, % growth, replicate 2, read-out: Pf_72h_%Growth_Rep2): -0.31%
- percent parasite growth at 2 µg/mL ([2]; library screen at 2 μg/mL, % growth, replicate 1, read-out: Tg_72h_%Growth_Rep1): 5.99%
- percent parasite growth at 2 µg/mL ([2]; library screen at 2 μg/mL, % growth, replicate 2, read-out: Tg_72h_%Growth_Rep2): 3.71%
- activity at 2 µg/mL ([3]; 3D7, library screen at 2 μg/mL, 120 h, % growth, replicate 1, read-out: Pf_120h_%Growth_Rep1): 5.18%
- activity at 2 µg/mL ([3]; 3D7, library screen at 2 μg/mL, 120 h, % growth, replicate 2, read-out: Pf_120h_%Growth_Rep2): 3.63%
